pIC50: −log10 of the molar value. Read-outs that look alike come from different tables or passages of the source.
Columns and labels:
Assay in all cases: 3H-TdR incorporation at 72 hr (24 hr drug exposure, wash, 48 hr)
H-460 = format: cell-based, Human; conditions: Homo sapiens, NCI-H460, read-out: IC50 in μM (3H-TdR incorporation at 72 hr) H-460 24 h, H-460 Human Lung Carcinoma, 72 hr assay
Procedure: (§1) Exposition of 24 hr to drug, wash, incubated for another 48 hr (total of 72 hr assay)
(§2) (3H-Thymidine Incorporation Assay)

MCF-7 = format: cell-based, Human; conditions: Homo sapiens, MCF7, read-out: IC50 in μM (3H-TdR incorporation at 72 hr) MCF-7 24 h, MCF-7 Human Breast Carcinoma, 72 hr assay
Procedure: as §1, §2

SF-268 = format: cell-based, Human; conditions: for IC50: Homo sapiens, SF-268, read-out: IC50 in μM (3H-TdR incorporation at 72 hr) SF-268 24 h, SF-268 Human Central Nervous System Tumor, 24 h drug exposure, 72 hr assay
Procedure: as §1, §2

CCRF-CEM = format: cell-based; conditions: Homo sapiens, CCRF-CEM, read-out: IC50 in μM (3H-TdR incorporation at 72 hr) CCRF-CEM 24 h, CCRF-CEM T-cell Leukemia, 72 hr assay
Procedure: as §1, §2

CEM/dCK- = format: cell-based; conditions: for IC50: Homo sapiens, CCRF-CEM, read-out: IC50 in μM (3H-TdR incorporation at 72 hr) CEM/dCK- 24 h, CCRF-CEM deoxycytidine kinase-deficient, 24 h drug exposure, 72 hr assay; for Factor* (Resistance Factor = Ratio of dCK- on Wild-type CCRF-CEM): ratio of IC50 CEM/dCK- to IC50 CCRF-CEM
Procedure: as §1, §2

Structure (SMILES)	IC50 (H-460) [µM]	IC50 (MCF-7) [µM]	IC50 (SF-268) [µM]	IC50 (CCRF-CEM) [µM]	IC50 (CEM/dCK-) [µM]	Factor* (Resistance Factor = Ratio of dCK- on Wild-type CCRF-CEM) (CEM/dCK-)	pIC50 (SF-268)
CN(C)CCCOC(=O)OC[C@H]1OC[C@@H](n2ccc(N)nc2=O)O1.O=C(O)C(F)(F)F [Compound 164, CARBONIC ACID 4-(4- AMINO-2-OXO-2H- PYRIMIDIN-1-YL)- [1,3]DIOXOLAN-2- YLMETHYL ESTER 3- DIMETHYLAMINO-PROPYL ESTER TRIFLUORO-ACETIC ACID SALT]	0.13	0.14	0.28	0.06	> 100	1667	
CN(C)CCCCOC(=O)Nc1ccn([C@@H]2CO[C@H](CO)O2)c(=O)n1.O=C(O)C(F)(F)F [Compound 169, [1-(2-HYDROXYMETHYL- [1,3]DIOXOLAN-4-YL)-2- OXO-1,2-DIHYDRO- PYRIMIDIN-4-YL]- CARBAMIC ACID 4- DIMETHYLAMINO-BUTYL ESTER TRIFLUOROACETIC ACID SALT]	8.2	5.1	7.1	2	> 100	>50	
C#CCN(CC#C)c1ccn([C@@H]2CO[C@H](CO)O2)c(=O)n1 [Compound 171, (S,S) 4-(DI-PROP-2′- YNYL-AMINO)-1-(2″- HYDROXYMETHYL- [1,3]DIOXOLAN-4″-YL)- 1H-PYRIMIDIN-2-ONE]	45	41	82	38	> 100	>2.6	
C#CCOC[C@H]1OC[C@@H](n2ccc(N)nc2=O)O1 [Compound 173, (S,S)-4-AMINO-1-(2′- PROP-2′-YNYLOXYMETHYL- [1,3]DIOXOLAN-4′-YL)- 1H-PYRIMIDIN-2-ONE]	6.1	17	2	2.6	> 100	>38	
COC(OC)(OC)OC[C@H]1OC[C@@H](n2ccc(N)nc2=O)O1 [Compound 177, 4-AMINO-1-(2- TRIMETHOXYMETHOXYMETHYL -[1,3]DIOXOLAN-4-YL)- 1H-PYRIMIDIN-2-ONE]	0.19	0.22	0.92	0.095	> 100	>1052	
CCOC[C@H]1OC[C@@H](n2ccc(N)nc2=O)O1 [Compound 178, (S,S)-4-AMINO-1-(2′- ETHOXYMETHYL- [1,3]DIOXOLAN-4′-YL)- 1H-PYRIMIDIN-2-ONE]	88	5.8	41	25	> 100	>4	
C=CCOC[C@H]1OC[C@@H](n2ccc(N)nc2=O)O1 [Compound 179, (S,S)-1-(2′- ALLYLOXYMETHYL- [1,3]DIOXOLAN-4′-YL)-4- AMINO-1H-PYRIMIDIN-2- ONE]	1.7	2.8	0.56	2.4	> 100	>42	
Nc1ccn([C@@H]2CO[C@H](COC3(c4ccccc4)OC4OC(COC(=O)c5ccccc5)C(OC(=O)c5ccccc5)C(OC(=O)c5ccccc5)C4O3)O2)c(=O)n1 (stereo partly drawn) [Compound 184, 3,4,6-TRI-O-BENZOYL- 1,2-O-(1-(4-AMINO-2- OXO-2H-PYRIMIDIN-1-YL)- [1,3]DIOXOLAN-2- YLMETHYLOXY)-BENZYL)- □^˜D-GLUCOPYRANOSe]	0.94	0.92	1.1	0.81	40	49	
O=c1nc(NS(=O)(=O)c2ccc([N+](=O)[O-])cc2[N+](=O)[O-])ccn1[C@@H]1CO[C@H](CO)O1 [Compound 188, N-[1-(2-HYDROXYMETHYL- [1,3]DIOXOLAN-4-YL)-2- OXO-1,2-DIHYDRO- […]-4-YL]-2,4- DINITRO- BENZENESULFONAMIDE]	0.097	3		0.79	> 100		5.62
CC(C)(C)OC(=O)NCCCCCC(=O)Nc1ccn([C@@H]2CO[C@H](COC(=O)CCCCCNC(=O)OC(C)(C)C)O2)c(=O)n1 [Compound 192, 6-TERT!- BUTOXYCARBONYLAMINO- HEXANOIC ACID 4-[4-(6- TERT- BUTOXYCARBONYLAMINO- HEXANOYLAMINO)-2-OXO- 2H-PYRIMIDIN-1-YL]- [1,3]DIOXOLAN-2-YL METHYL ESTER]	0.29	0.0016	0.4	0.0084	48	5,714	
CC(C)(C)OC(=O)NCCCCCC(=O)OC[C@H]1OC[C@@H](n2ccc(N)nc2=O)O1 [Compound 194, 6-TERT!- BUTOXYCARBONYLAMINO- HEXANOIC ACID 4-(4- AMINO-2-OXO-2H- PYRIMIDIN-1-YL)- [1,3]DIOXOLAN-2- YLMETHYL ESTER]	0.011	0.004	0.041	0.0024	10	4167	

More lines, main results first:

IC50 (H-460) [µM]	IC50 (MCF-7) [µM]	IC50 (SF-268) [µM]	IC50 (CCRF-CEM) [µM]	IC50 (CEM/dCK-) [µM]	Structure (SMILES)	Factor* (Resistance Factor = Ratio of dCK- on Wild-type CCRF-CEM) (CEM/dCK-)	pIC50 (SF-268)
0.21	0.19	0.85	0.11	> 100	CN(C)/C=N/c1ccn([C@@H]2CO[C@H](CO)O2)c(=O)n1 (stereo in doubt) [Compound 222, N′-[1-(2-HYDROXYMETHYL- [1,3]DIOXOLAN-4-YL)-2- OXO-1,2-DIHYDRO- PYRIMIDIN-4-YL]-N,N- DIMETHYL-FORMAMIDINE]	>909	
3.7	8.6	0.12	5.1	> 100	O=c1nc(/N=C2/CCCN2Cc2ccccc2)ccn1[C@@H]1CO[C@H](CO)O1 (stereo in doubt) [Compound 236, 4-(1-BENZYL-PYRROLIDIN- 2-YLIDENEAMINO)-1-(2- HYDROXYMETHYL- [1,3]DIOXOLAN-4-YL)-1H- PYRIMIDIN-2-ONE]	>20	
0.0092	0.033	0.025	0.0033	27	Nc1ccn([C@@H]2CO[C@H](COC(=O)c3ccccc3)O2)c(=O)n1 [Compound 163, BENZOIC ACID 4-(4- AMINO-2-OXO-2H- PYRIMIDIN-1-YL)- [1,3]DIOXOLAN-2- YLMETHYL ESTER]	8,182	
3.4	10	16	1.8	> 100	O=C(NCNc1ccn([C@@H]2CO[C@H](CO)O2)c(=O)n1)c1ccccc1 [Compound 165, N-{[1-(2-HYDROXYMETHYL- [1,3]DIOXOLAN-4-YL)-2- OXO-1,2-DIHYDRO- PYRIMIDIN-4-YLAMINO]- METHYL}-BENZAMIDE]	>56	
11	21	38	9	> 100	COc1ccc(C(=O)Nc2ccn([C@@H]3CO[C@H](COC(=O)c4ccc(OC)cc4)O3)c(=O)n2)cc1 [Compound 174, 4-METHOXY-BENZOIC ACID 4-[4-(4-METHOXY- BENZOYLAMINO)-2-OXO-2H- PYRIMIDIN-1-YL]- [1,3]DIOXOLAN-2- YLMETHYL ESTER]	>11	
6.3	3.1	32	3.5	> 100	COc1ccc(C(=O)Nc2ccn([C@@H]3CO[C@H](CO)O3)c(=O)n2)cc1 [Compound 175, N-[1-(2-HYDROXYMETHYL- [1,3]DIOXOLAN-4-YL)-2- OXO-1,2-DIHYDRO- PYRIMIDIN-4-YL]-4- METHOXY-BENZAMIDE]	>29	
0.13	0.22	0.21	0.047	> 100	O=C(Nc1ccn([C@@H]2CO[C@H](CO)O2)c(=O)n1)OCc1ccc([N+](=O)[O-])cc1 [Compound 182, [1-(2-HYDROXYMETHYL- [1,3]DIOXOLAN-4-YL)-2- OXO-1,2-DIHYDRO- PYRIMIDIN-4-YL]- CARBAMIC ACID 4-NITRO- BENZYL ESTER]	>2100	
0.037	0.038	0.12	0.018	45	Cl.Nc1ccn([C@@H]2CO[C@H](COC(=O)OCc3ccc([N+](=O)[O-])cc3)O2)c(=O)n1 [Compound 183, CARBONIC ACID 4-(4- AMINO-2-OXO-2H- PYRIMIDIN-1-YL)- [1,3]DIOXOLAN-2- YLMETHYL ESTER 4-NITRO- BENZYL ESTER HYDROCHLORIDE SALT]	2,500	
0.64	0.16	2	0.059	> 100	CC(C)(C)OC(=O)NCCCCCC(=O)Nc1ccn([C@@H]2CO[C@H](CO)O2)c(=O)n1 [Compound 193, {5-[1-(2-HYDROXYMETHYL- [1,3]DIOXOLAN-4-YL)-2- OXO-1,2-DIHYDRO- PYRIMIDIN-4- YLCARBAMOYL]-PENTYL}- CARBAMIC ACID TERT- BUTYL ESTER]	>1695	
